A word on the Ki: it is a dissociation constant, usually derived from enzyme kinetics or from competition with a known ligand.

Read-outs that look alike come from different tables or passages of the source.

This assay concerns the target T1, human CB2 receptors (Homo sapiens, UniProt P34972).
T1 construct: expressed in transfected cells; membrane preparations
Briefly: Affinity for human CB2 cannabinoid receptors: inhibition of [3H]-CP55940 binding to transfected CHO-K1 cell membranes. To be noted: inhibition constant value range, [3H]-CP55940 1 nM, Cheng-Prusoff. The method, then: The affinity of the compounds of the present invention for the different sub-types of cannabinoid receptors was measured according to procedures analogous to those described hereafter for the human CB2 receptor.
Study of the Affinity of the Compounds for the Human CB2 Cannabinoid Receptors:
The affinity of the compounds of the invention for the human CB2 receptors is determined by measuring the inhibition of the binding of [^3H]-CP55940 to transfected CHO-K1 cell membrane preparations.
The CHO-K1 cells expressing the human CB2 receptors in stable fashion are cultured in an RPMI 1640 medium containing 10% foetal calf serum, 2 mM of glutamine, 100 U/ml of penicillin, 0.1 mg/ml of streptomycin and 0.5 mg/ml of G418. The cells are collected with 0.5 mM of EDTA and centrifuged at 500 g for 5 minutes at 4° C. The pellet is re-suspended in phosphate buffered saline medium (PBS) and centrifuged at 500 g for 5 minutes at 4° C. The pellet is re-suspended in a Tris 50 mM buffer medium at pH 7.4 and centrifuged at 500 g for 5 minutes at 4° C. The cells are lysed by sonication and centrifuged at 39,000 g for 10 minutes at 4° C. The pellet is re-suspended in the Tris 50 mM buffer medium at pH 7.4 and centrifuged at 50,000 g for 10 minutes at 4° C. The membranes obtained in this last pellet are stored at −80° C.
Measurement of the competitive inhibition of the binding of the [^3H]-CP55940 to the CB2 receptors is carried out in duplicate using 96-well polypropylene plates. The cell membranes (10 μg of proteins/well) are incubated with the [^3H]-CP55940 (1 nM) for 60 minutes at 25° C. in a Tris-HCl 50 mM buffer medium, pH 7.4, comprising 0.1% bovine serum albumin (BSA), 5 mM of MgCl2, and 50 μg/ml of bacitracin.
The bound [^3H]-CP55940 is separated from the free [^3H]-CP55940 by filtration through GF/C glass fibre filter plates (Unifilter, Packard) pre-impregnated with 0.1% polyethylenimine (P.E.I.), using a Filtermate 196 (Packard). The filters are washed with Tris-HCl 50 mM buffer, pH 7.4 at 0-4° C. and the radioactivity present is determined using a counter (Packard Top Count).
The specific binding is obtained by subtracting the non-specific binding (determined in the presence of 0.1 μM of WIN55212-2 from the total binding). The data are analyzed by computer-assisted non-linear regression (MDL). For each test, a Cheng-Prusoff correction is made in order to convert the IC50 to the inhibition constant, Ki.
where [L] is the concentration of the radioligand used in the test and Kd is the radioligand equilibrium dissociation constant.

T1 sequence (P34972 whole entry): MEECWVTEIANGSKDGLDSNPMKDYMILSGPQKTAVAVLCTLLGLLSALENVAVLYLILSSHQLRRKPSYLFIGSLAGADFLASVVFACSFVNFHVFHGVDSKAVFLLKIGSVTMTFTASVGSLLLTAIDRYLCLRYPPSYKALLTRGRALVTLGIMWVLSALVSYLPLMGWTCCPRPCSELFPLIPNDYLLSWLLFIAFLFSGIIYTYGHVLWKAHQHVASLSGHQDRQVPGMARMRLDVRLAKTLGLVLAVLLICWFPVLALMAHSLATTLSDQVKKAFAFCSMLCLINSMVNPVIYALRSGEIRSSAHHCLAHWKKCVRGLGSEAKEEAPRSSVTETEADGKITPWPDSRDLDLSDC

For the compound `O=c1c2sccc2nc(-c2ccc(-c3ccccc3)cc2)n1CCc1ccncc1` [Example 15], the Ki is less than 0.5 µM (read-out: Ki < 0.5 μM) and less than 5 µM (read-out: Ki < 5 μM).
Taken in the same sequence, the figures for `O=c1c2sccc2nc(-c2ccc(-c3ccccc3)cc2)n1CCC1CCOCC1` [Example 12] were less than 0.5 µM and less than 5 µM.
For `Cc1cc2nc(-c3ccc(-c4ccccc4F)cc3)n(CCN3CCCCC3)c(=O)c2s1` [Example 78], the inhibitory constant (Ki) is less than 0.5 µM (read-out: Ki < 0.5 μM) and less than 5 µM (read-out: Ki < 5 μM).
Taken in the same sequence, the figures for `O=c1c2sccc2nc(-c2ccc(-c3ccc(Cl)c(Cl)c3)cc2)n1CCN1CCCCC1` [Example 56] were less than 0.5 µM and less than 5 µM.
The corresponding values for `O=c1c2sccc2nc(-c2ccc(-c3ccccc3)cc2)n1CCc1ccc(Cl)c(Cl)c1` [Example 7] are less than 0.5 µM and less than 5 µM.
As for `O=c1c2sccc2nc(-c2ccc(-c3ccccc3)cc2)n1CCC1CCCCC1` [Example 11], the Ki was less than 0.5 µM (read-out: Ki < 0.5 μM) and less than 5 µM (read-out: Ki < 5 μM).
Taken in the same sequence, the figures for `O=c1c2sccc2nc(-c2ccc(-c3ccccc3)cc2)n1CCC1=CCCCC1` [Example 71] were less than 0.5 µM and less than 5 µM.
With `O=c1c2sccc2nc(-c2ccc(Cc3ccccc3)cc2)n1CCN1CCCCC1` [Example 32], the Ki (read-out: Ki < 0.5 μM) is less than 0.5 µM and the inhibition constant (Ki) (read-out: Ki < 5 μM) was less than 5 µM.
`Cc1csc2c(=O)n(CCN3CCCCC3)c(-c3ccc(-c4ccccc4)cc3)nc12` [Example 46]: the Ki was less than 0.5 µM (read-out: Ki < 0.5 μM) and less than 5 µM (read-out: Ki < 5 μM).
`O=c1c2sccc2nc(-c2ccc(C3CCCCC3)cc2)n1CCN1CCCCCC1` [Example 38]: the Ki by setting is: (read-out: Ki < 0.5 μM) less than 0.5 µM; (read-out: Ki < 5 μM) less than 5 µM.
Regarding `O=c1c2sccc2nc(-c2ccc(-c3ccccc3)cc2)n1CCc1ccccc1` [Example 13], the inhibition constant Ki reads like this: (read-out: Ki < 0.5 μM) less than 0.5 µM; (read-out: Ki < 5 μM) less than 5 µM.
With `O=c1c2sccc2nc(-c2ccc(-c3cccc(Cl)c3)cc2)n1CCN1CCCCC1` [Example 79], the Ki was less than 0.5 µM (read-out: Ki < 0.5 μM) and less than 5 µM (read-out: Ki < 5 μM).
For `Cc1cccc(-c2ccc(-c3nc4ccsc4c(=O)n3CCN3CCCCC3)cc2)c1` [Example 62], the Ki was less than 0.5 µM (read-out: Ki < 0.5 μM) and less than 5 µM (read-out: Ki < 5 μM).
For the compound `O=c1c2occc2nc(-c2ccc(-c3ccccc3)cc2)n1CCN1CCCCC1` [Example 51], under “read-out: Ki < 5 μM”, the Ki was less than 5 µM.
Take `O=c1c2sc3ccccc3c2nc(-c2ccc(-c3ccccc3)cc2)n1CCN1CCOCC1` [Example 45]: the Ki (read-out: Ki < 5 μM) is less than 5 µM.
As to `CC1CCN(CCn2c(-c3ccc(-c4ccccc4)cc3)nc3ccsc3c2=O)CC1` [Example 43], the inhibitory constant (Ki) reads like this: (read-out: Ki < 0.5 μM) less than 0.5 µM; (read-out: Ki < 5 μM) less than 5 µM.
Take `O=c1c2sccc2nc(-c2ccc(-c3ccccc3)cc2)n1CCN1CCCC1` [Example 26]: the Ki is, setting by setting: (read-out: Ki < 0.5 μM) less than 0.5 µM; (read-out: Ki < 5 μM) less than 5 µM.
Take `Cc1cc2nc(-c3ccc(-c4ccccc4C(F)(F)F)cc3)n(CCN3CCCCC3)c(=O)c2s1` [Example 83]: the inhibition constant Ki is less than 0.5 µM (read-out: Ki < 0.5 μM) and less than 5 µM (read-out: Ki < 5 μM).
As to `O=c1c2sccc2nc(-c2ccc(C3CCCCC3)cc2)n1CCN1CCCC1` [Example 35], the inhibitory constant (Ki) is less than 0.5 µM (read-out: Ki < 0.5 μM) and less than 5 µM (read-out: Ki < 5 μM).
As to `O=c1c2ccsc2nc(-c2ccc(-c3ccccc3)cc2)n1CCC1CCOCC1` [Example 47], for the setting “read-out: Ki < 5 μM”, the Ki is less than 5 µM.
Turning to `COc1ccc(CCn2c(-c3ccc(-c4ccccc4)cc3)nc3ccsc3c2=O)cc1OC` [Example 2], under “read-out: Ki < 5 μM”, the inhibitory constant (Ki) is less than 5 µM.
`O=c1c2ccsc2nc(-c2ccc(-c3ccccc3)cc2)n1CCN1CCOCC1` [Example 48]: the inhibition constant Ki (read-out: Ki < 5 μM) was less than 5 µM.
For the compound `COc1ccccc1CCn1c(-c2ccc(-c3ccccc3)cc2)nc2ccsc2c1=O` [Example 1], the Ki (read-out: Ki < 5 μM) is less than 5 µM.
For the compound `O=c1c2sccc2nc(-c2ccc3[nH]c4ccccc4c3c2)n1CCN1CCCCC1` [Example 52], the inhibition constant Ki (read-out: Ki < 5 μM) was less than 5 µM.
In the case of `Cc1cc2nc(-c3ccc(-c4ccccc4Cl)cc3)n(CCN3CCCCC3)c(=O)c2s1` [Example 77], the Ki is less than 0.5 µM (read-out: Ki < 0.5 μM) and less than 5 µM (read-out: Ki < 5 μM).
The corresponding values for `Cc1cc2nc(-c3ccc(-c4c(C)cccc4C)cc3)n(CCN3CCCCC3)c(=O)c2s1` [Example 91] are less than 0.5 µM and less than 5 µM.
Regarding `CC1CCCC(C)N1CCn1c(-c2ccc(-c3ccccc3)cc2)nc2ccsc2c1=O` (centres unmarked) [Example 72], the inhibition constant Ki (read-out: Ki < 5 μM) is less than 5 µM.
Take `O=c1c2ccsc2nc(-c2ccc(-c3ccccc3)cc2)n1CCN1CCCCC1` [Example 49]: the inhibitory constant (Ki) was less than 0.5 µM (read-out: Ki < 0.5 μM) and less than 5 µM (read-out: Ki < 5 μM).
Take `O=c1c2sccc2nc(-c2ccc(-c3ccccc3)cc2)n1CCc1cccnc1` [Example 14]: the Ki (read-out: Ki < 5 μM) was less than 5 µM.
For the compound `O=c1c2sccc2nc(-c2ccc(-c3ccccc3)cc2)n1CCN1CCCCC1` [Example 24], the inhibition constant Ki by setting is: (read-out: Ki < 0.5 μM) less than 0.5 µM; (read-out: Ki < 5 μM) less than 5 µM.
Taken in the same sequence, the figures for `Cc1ccccc1-c1ccc(-c2nc3ccsc3c(=O)n2CCN2CCCCC2)cc1` [Example 54] were less than 0.5 µM and less than 5 µM.
Regarding `O=c1c2sccc2nc(-c2ccc(-c3cc(Cl)cc(Cl)c3)cc2)n1CCN1CCCCC1` [Example 92], the inhibition constant (Ki) runs as follows: (read-out: Ki < 0.5 μM) less than 0.5 µM; (read-out: Ki < 5 μM) less than 5 µM.
Turning to `O=C1c2ccccc2C(=O)c2cc(-c3nc4ccsc4c(=O)n3CCN3CCCCC3)ccc21` [Example 25], the Ki runs as follows: (read-out: Ki < 0.5 μM) less than 0.5 µM; (read-out: Ki < 5 μM) less than 5 µM.
On to `O=c1c2sc3ccccc3c2nc(-c2ccc(-c3ccccc3)cc2)n1CCN1CCCCC1` [Example 44], for which the Ki runs as follows: (read-out: Ki < 0.5 μM) less than 0.5 µM; (read-out: Ki < 5 μM) less than 5 µM.

The record behind these values is patent publication US20090325933A1, “Pyrimidinone Derivatives and Their Use as a Drug” (Ipsen Pharma S.A.S., priority 2006, published 2009).
